Assay results: patent publication US9242933B2 (AbbVie Deutschland GmbH & Co. KG, priority 2007, dated 2016)

target: T1, human mGlu2 receptor (Homo sapiens, UniProt Q14416); experiment: FLIPR intracellular Ca2+ assay, potentiation of glutamate response in HEK293 clone expressing mGlu2 receptor, rGLAST and Galpha16; type: cell-based; conditions: 1 μM glutamate added ten minutes after test compound, HEK293 cells with human mGlu2, rGLAST, Galpha16, read-out: EC50 values of potentiation effect to glutamate
T1 construct: expressed in transfected cells; host or cells: HEK293
Description: The compounds of the present invention can be tested e.g. by evaluating intracellular Ca^2+ concentrations in cells permanently expressing human mGlu receptor, the rat glutamate transporter rGLAST and the Galpha16 subunit of the G-protein complex under standard conditions in a fluorometric imaging plate reader (FLIPR, Molecular Devices, Union City, Calif. 94587, USA) by measuring the response of the cells to a test compound in the absence of presence of glutamate. The FLIPR assay is a common functional assay to monitor native or recombinant Galphaq-coupled receptors, and native or recombinant receptors normally linked to other G-protein signalling cascades, which are coupled to calcium through co-expression of an alpha subunit of a promiscuous or chimeric G-protein. In the assay the increase of intracellular calcium is measured through a calcium-dependent fluorescent dye (e.g. Fluo-4 AM) in the FLIPR instrument.
For the purpose of the present study, a cell line permanently expressing a human mGlu receptor, such as the mGlu2 receptor, the rat glutamate transporter rGLAST and the GalphaG16 may be generated by transfection as described in the examples. For selection of a suitable cell clone and also the subsequent measurements, the selected clone the cells will be plated on suitable multiwell plates in a suitable medium (e.g. DMEM Glutamax (GIBCO #21885-025)/10% dialyzed FCS). Cells may be selected by gentamycin treatment as described in the examples. Cells will then be loaded with a suitable Ca^2+ sensitive fluorescence dye, e.g. with 2 μM Fluo-4 AM (Molecular Probes, F14201). Cells will then be washed with a suitable buffer (e.g. HEPES) and the thus treated plates will be measured in a fluorometric imaging plate reader (e.g. FLIPR, Molecular Devices, Union City, Calif. 94587, USA).
The compounds of the present invention were tested in the above-described FLIPR assay using the selected cell clone. Increased intracellular calcium levels were quantified following addition of test compound (agonism), as well as following addition of a submaximal concentration of glutamate (potentiation).
For the determination of the effect of the test compound by itself (agonism) or by increasing the response to a submaximal concentration (e.g. 1 μM) of glutamate (potentiation), the resulting signal is determined by subtraction of the background fluorescence from the maximal fluorescent peak height of the respective response. In the FLIPR instrument the compound is given to the cell and its fluorescence response quantified by the FLIPR instrument (agonism). The concentration at which the compound exerts half its maximal effect is named the ‘effective concentration 50’ or ‘EC50’. The maximal effect induced by the test substance is normalized to the maximal effect exerted by 100 μM glutamate (set at 100%).
After addition of the test compound to the plate, a submaximal concentration of glutamate (e.g. 1 μM glutamate) will be added. A potentiator enhances the response of the receptor to glutamate. The response to glutamate in the presence of test compound is quantified. The concentration at which the test compound is able to exert half its maximal potentiation effect to glutamate is named the ‘EC50’. The maximal response to the submaximal concentration of glutamate (e.g. 1 micromolar glutamate) in the presence of test compound is normalized to the maximal effect exerted by 100 micromolar glutamate (set at 100%). Least squares curve fitting with a four-parameter equation is then applied to the resulting dose-response curve to determine the resulting EC5O values (Graph Pad Prism).
For the purpose of the present study, a cell line permanently expressing the human mGlu2 receptor, the rat glutamate transporter rGLAST and the alpha subunit of G16 was generated by transfection. […]

T1 sequence (Q14416 19-872): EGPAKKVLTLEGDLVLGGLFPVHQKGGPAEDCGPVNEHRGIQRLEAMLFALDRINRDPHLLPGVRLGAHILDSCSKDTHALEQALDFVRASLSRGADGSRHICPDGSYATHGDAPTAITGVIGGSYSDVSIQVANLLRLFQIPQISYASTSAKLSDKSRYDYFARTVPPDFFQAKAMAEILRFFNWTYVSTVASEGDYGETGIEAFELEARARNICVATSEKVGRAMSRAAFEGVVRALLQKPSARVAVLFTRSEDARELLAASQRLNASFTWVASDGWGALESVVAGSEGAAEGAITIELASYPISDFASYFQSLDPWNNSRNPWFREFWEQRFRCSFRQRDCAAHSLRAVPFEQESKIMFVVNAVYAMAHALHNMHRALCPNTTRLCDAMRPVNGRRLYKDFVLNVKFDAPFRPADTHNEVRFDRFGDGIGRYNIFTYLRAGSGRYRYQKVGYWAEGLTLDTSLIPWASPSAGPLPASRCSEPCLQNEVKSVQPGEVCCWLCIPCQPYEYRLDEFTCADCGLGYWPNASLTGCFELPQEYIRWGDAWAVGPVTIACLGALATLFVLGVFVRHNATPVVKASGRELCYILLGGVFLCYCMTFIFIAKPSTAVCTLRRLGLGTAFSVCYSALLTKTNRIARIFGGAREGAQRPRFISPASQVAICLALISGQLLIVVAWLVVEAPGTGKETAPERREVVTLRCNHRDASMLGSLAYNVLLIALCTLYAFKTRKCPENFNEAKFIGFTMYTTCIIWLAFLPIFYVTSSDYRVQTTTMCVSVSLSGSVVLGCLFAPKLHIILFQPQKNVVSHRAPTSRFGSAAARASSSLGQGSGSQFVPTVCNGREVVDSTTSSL

Row | Molecule | EC50 [nM]
1 | 2-Propyl-6-{[3-(4-trifluoromethyl-phenyl)-1H-pyrazol-4-ylmethyl]-amino}-2,3-dihydro-isoquinolin-1-one [Example 584] | < 1000
2 | CCCC(=O)c1ccc(NCc2ccc(CC)s2)cc1 [Example 9, 1-{4-[(5-Ethylthiophen-2-ylmethyl)amino]phenyl}butan-1-one] | 1000 to 10000
3 | CCCC(=O)c1ccc(NCc2ccco2)cc1 [Example 13, 1-{4-[(Furan-2-ylmethyl)amino]phenyl}butan-1-one] | 1000 to 10000
4 | CCCC(=O)c1ccc(NCc2cccnc2)cc1 [Example 16, 1-{4-[(Pyridin-3-ylmethyl)amino]phenyl}butan-1-one] | 1000 to 10000
5 | CCCC(=O)c1ccc(NCc2ccc(COC(C)=O)o2)cc1 [Example 23, Acetic acid 5-[(4-butyrylphenylamino)methyl]furan-2-ylmethyl ester] | 1000 to 10000
6 | CCCC(=O)c1ccc(NCc2ccc3ncccc3c2)cc1 [Example 25, 1-{4-[(Quinolin-6-ylmethyl)amino]phenyl}butan-1-one] | 1000 to 10000
7 | CCCC(=O)c1ccc(NCc2ccc(-c3ccc(S(N)(=O)=O)cc3)o2)cc1 [Example 35, 4-{5-[(4-Butyrylphenylamino)methyl]furan-2-yl}benzenesulfonamide] | 1000 to 10000
8 | CCCC(=O)c1ccc(NCc2cnccc2-c2cccc(Br)c2)cc1 [Example 37, 1-(4-{[4-(3-Bromophenyl)pyridin-3-ylmethyl]amino}phenyl)butan-1-one] | 1000 to 10000
9 | CCCC(=O)c1ccc(NCc2c[nH]nc2-c2cccs2)cc1 [Example 40, 1-(4-{[3-(Thiophen-2-yl)-1H-pyrazol-4-ylmethyl]amino}phenyl)butan-1-one] | < 1000
10 | CCCC(=O)c1ccc(NCc2c[nH]nc2-c2ccc(C(F)(F)F)cc2)cc1 [Example 42] | < 1000
11 | CCCC(=O)c1ccc(NCc2c(-c3ccccc3)noc2C)cc1 [Example 43, 1-{4-[(5-Methyl-3-phenylisoxazol-4-ylmethyl)amino]phenyl}butan-1-one] | 1000 to 10000
12 | CCCC(=O)c1ccc(NCc2cnn(-c3ccccc3)c2C)cc1 [Example 45, 1-{4-[(5-Methyl-1-phenyl-1H-pyrazol-4-ylmethyl)amino]phenyl}butan-1-one] | 1000 to 10000
13 | CCCC(=O)c1ccc(NCc2csc(-c3ccccc3)n2)cc1 [Example 46, 1-{4-[(2-Phenylthiazol-4-ylmethyl)amino]phenyl}butan-1-one] | 1000 to 10000
14 | CCCC(=O)c1ccc(NCc2c(C)nn(C)c2Oc2ccc(Cl)cc2)cc1 [Example 49, 1-(4-{[5-(4-Chlorophenoxy)-1,3-dimethyl-1H-pyrazol-4-ylmethyl]amino}phenyl)butan-1-one] | 1000 to 10000
15 | CCCC(=O)c1ccc(NCc2c(C)nn(C)c2Oc2cccc(Cl)c2)cc1 [Example 50, 1-(4-{[5-(3-Chlorophenoxy)-1,3-dimethyl-1H-pyrazol-4-ylmethyl]amino}phenyl)butan-1-one] | 1000 to 10000
16 | CCCC(=O)c1ccc(NCc2c(CSc3ccccc3)nn(C)c2Cl)cc1 [Example 52, 1-(4-{[5-Chloro-1-methyl-3-(phenylthiomethyl)-1H-pyrazol-4-ylmethyl]amino}phenyl)butan-1-one] | 1000 to 10000
17 | CCCC(=O)c1ccc(NCc2c(C(F)(F)F)nn(C)c2Cl)cc1 [Example 53, 1-(4-{[5-Chloro-1-methyl-3-(trifluoromethyl)-1H-pyrazol-4-yl]methylamino}phenyl)butan-1-one] | 1000 to 10000
18 | CCCC(=O)c1ccc(NCc2cnn(CC)c2C)cc1 [Example 55, 1-{4-[(1-Ethyl-5-methyl-1H-pyrazol-4-ylmethyl)amino]phenyl}butan-1-one] | 1000 to 10000
19 | CCCC(=O)c1ccc(NCc2c(C)nn(-c3ccccc3)c2C)cc1 [Example 56, 1-{4-[(3,5-Dimethyl-1-phenyl-1H-pyrazol-4-ylmethyl)amino]phenyl}butan-1-one] | 1000 to 10000

Row | Molecule | EC50 [nM]
20 | CCCC(=O)c1ccc(NCc2ccnn2-c2ccccc2)cc1 [Example 57, 1-{4-[(2-Phenyl-2H-pyrazol-3-ylmethyl)amino]phenyl}butan-1-one] | 1000 to 10000
21 | CCCC(=O)c1ccc(NCc2c(C)nn(C(C)(C)C)c2C)cc1 [Example 58, 1-{4-[(1-tert-Butyl-3,5-dimethyl-1H-pyrazol-4-ylmethyl)amino]phenyl)butan-1-one] | 1000 to 10000
22 | CCCC(=O)c1ccc(NCc2cnn(C)c2C)cc1 [Example 60, 1-{4-[(1,5-Dimethyl-1H-pyrazol-4-ylmethyl)amino]phenyl}butan-1-one] | 1000 to 10000
23 | CCCC(=O)c1ccc(NCc2cn[nH]c2)cc1 [Example 68, 1-{4-[(1H-Pyrazol-4-ylmethyl)amino]phenyl}butan-1-one] | 1000 to 10000
24 | CCCC(=O)c1ccc(NCc2cnn(CCC)c2C)cc1 [Example 71] | 1000 to 10000
25 | CCCC(=O)c1ccc(NCc2cnn(C)c2-c2ccccc2)cc1 [Example 73] | < 1000
26 | CCCC(=O)c1ccc(NCc2cnn(C(C)C)c2)cc1 [Example 75, 1-{4-[(1-Isopropyl-1H-pyrazol-4-ylmethyl)amino]phenyl}butan-1-one] | 1000 to 10000
27 | CCCC(=O)c1ccc(NCc2c[nH]nc2-c2ccc(O)cc2)cc1 [Example 76, 1-(4-{[3-(4-Hydroxyphenyl)-1H-pyrazol-4-ylmethyl]amino}phenyl)butan-1-one] | < 1000
28 | CCCC(=O)c1ccc(NCc2c[nH]nc2C(C)(C)C)cc1 [Example 77, 1-{4-[(3-tert-Butyl-1H-pyrazol-4-ylmethyl)amino]phenyl}butan-1-one] | < 1000
29 | O=C1CCc2cc(NCc3c[nH]nc3-c3ccc(C(F)(F)F)cc3)ccc21 [Example 81, 5-{[3-(4-Trifluoromethylphenyl)-1H-pyrazol-4-ylmethyl]-amino}-indan-1-one] | 1000 to 10000
30 | COc1ccccc1Oc1ccc(NCc2c[nH]nc2-c2ccc(C(F)(F)F)cc2)cc1 [Example 83, [4-(2-Methoxy-phenoxy)-phenyl]-[3-(4-trifluoromethylphenyl)-1H-pyrazol-4-ylmethyl]-amine] | < 1000
31 | COc1cc(NCc2c[nH]nc2C(C)(C)C)cc(OC)c1 [Example 116, (3-tert-Butyl-1H-pyrazol-4-ylmethyl)-(3,5-dimethoxyphenyl)-amine] | 1000 to 10000
32 | CC(C)(C)c1n[nH]cc1CNc1ccc2c(c1)OCO2 [Example 117, Benzo[1,3]dioxol-5-yl-(3-tert-butyl-1H-pyrazol-4-ylmethyl)-amine] | 1000 to 10000
33 | CN(C)S(=O)(=O)c1ccc(NCc2c[nH]nc2-c2ccc(C(F)(F)F)cc2)cc1 [Example 169, N,N-Dimethyl-4-{[3-(4-trifluoromethyl-phenyl)-1H-pyrazol-4-ylmethyl]-amino}-benzenesulfonamide] | 1000 to 10000
34 | CCCC(=O)c1ccc(NCc2c[nH]nc2-c2ccc(OC)cc2)cc1 [Example 209, 1-(4-{[3-(4-Methoxy-phenyl)-1H-pyrazol-4-ylmethyl]-amino}-phenyl)-butan-1-one] | < 1000
35 | CCCC(=O)c1ccc(NCc2c[nH]nc2-c2ccccc2)cc1 [Example 210, 1-{4-[(3-Phenyl-1H-pyrazol-4-ylmethyl)-amino]-phenyl}-butan-1-one] | < 1000
36 | CCCC(=O)c1ccc(NCc2c(C)nn(C)c2C)cc1 [Example 211, 1-{4-[(1,3,5-Trimethyl-1H-pyrazol-4-ylmethyl)-amino]-phenyl}-butan-1-one] | 1000 to 10000
37 | CCCC(=O)c1ccc(NCc2c[nH]nc2-c2ccc(C)cc2)cc1 [Example 212, 1-{4-[(3-p-Tolyl-1H-pyrazol-4-ylmethyl)-amino]-phenyl}-butan-1-one] | < 1000
38 | CCCC(=O)c1ccc(NCc2c[nH]nc2-c2cc(F)cc(F)c2)cc1 [Example 213, 1-(4-{[3-(3,5-Difluorophenyl)-1H-pyrazol-4-ylmethyl]-amino}-phenyl)-butan-1-one] | < 1000
